What was measured:
[1] = system: SARS-CoV-2 variants, Alphacoronavirus, Betacoronavirus, HCV, NoV, IAV, IAB
[2] = system: SARS-CoV-2 variants, Alphacoronavirus, Betacoronavirus, HCV, NoV, IAV, IAB; test: organism not typed; conditions: read-out: EC50 against remaining viruses

Cc1c(-c2ccc(O)cc2)n(Cc2ccc(OCCN3CCCCC3)cc2)c2ccc(O)cc12 [Pipendoxifene]
potency against six SARS-CoV-2 variants and two coronaviruses [1]: submicromolar potency
EC50 [2]: 3 to 8 µM

— US20260174744A1, “COMPOUNDS, COMPOSITIONS, AND METHODS OF TREATING RNA VIRAL INFECTIONS” (priority 2024, published 2026)
